Experimental data as given in patent publication US9630931B2, “Pharmaceutically active pyrazine derivatives” (Sentinel Oncology Limited, priority 2011, dated 2017).
pIC50: −log10 of the molar value. Counter-ions that a name gives are not always drawn.

Tests used:
Chk-1 kinase = Chk-1 kinase (Homo sapiens (Human), UniProt O14757); experiment: Chk-1 kinase inhibiting activity (33P-ATP radiometric filter assay, CHKtide substrate); format: biochemical; details: recombinant full length GST-tagged CHK-1 0.5 nM, CHKtide 20 μM, 120 minutes at room temperature; read-out: IC50 against Chk-1 kinase
Chk-1 kinase, sequence (O14757 whole entry): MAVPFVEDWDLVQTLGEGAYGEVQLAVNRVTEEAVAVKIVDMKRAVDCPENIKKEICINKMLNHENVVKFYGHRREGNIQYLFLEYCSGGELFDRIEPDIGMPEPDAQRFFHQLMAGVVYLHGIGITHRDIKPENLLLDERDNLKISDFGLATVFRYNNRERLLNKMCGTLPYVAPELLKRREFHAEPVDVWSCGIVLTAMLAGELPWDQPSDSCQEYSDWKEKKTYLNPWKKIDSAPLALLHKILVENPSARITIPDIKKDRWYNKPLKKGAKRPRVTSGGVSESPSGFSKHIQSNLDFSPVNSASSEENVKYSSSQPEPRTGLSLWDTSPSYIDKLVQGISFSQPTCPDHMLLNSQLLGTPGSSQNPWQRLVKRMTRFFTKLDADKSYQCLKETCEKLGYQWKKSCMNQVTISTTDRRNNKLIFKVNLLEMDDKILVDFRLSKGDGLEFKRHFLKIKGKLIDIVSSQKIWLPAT
Protocol: The compounds of the invention were tested for activity against Chk-1 kinase using the materials and protocols set out below.
Base Reaction buffer: 20 mM Hepes (pH 7.5), 10 mM MgCl2, 1 mM EGTA, 0.02% Brij35, 0.02 mg/ml BSA, 0.1 mM Na3VO4, 2 mM DTT, 1% DMSO
Required cofactors are added individually to each kinase reaction
(i) Prepare indicated substrate in freshly prepared Base Reaction Buffer
(ii) Deliver any required cofactors to the substrate solution above
(iii) Deliver indicated kinase into the substrate solution and gently mix
(iv) Deliver compounds in DMSO into the kinase reaction mixture
(v) Deliver ^33P-ATP (specific activity 0.01 μCi/μl final) into the reaction mixture to initiate the reaction.
(vi) Incubate kinase reaction for 120 minutes at room temperature
(vii) Reactions are spotted onto P81 ion exchange paper (Whatman #3698-915)
(viii) Wash filters extensively in 0.1% phosphoric acid.
(ix) Dry filters and measure counts in scintillation counter
Recombinant full length construct, N-terminal GST tagged, purified from insect cells.
No special measures were taken to activate this kinase.
Final concentration in assay=0.5 nM
Peptide sequence: [[…]]
Final concentration in assay=20 μM
No additional cofactors are added to the reaction mixture
From the results obtained by following the above protocol, the IC50 values against Chk-1 kinase of a number of the compounds of the Examples were determined and these are shown in Table 3.

MV4-11 cells = experiment: Inhibition of cell growth in MV4-11 cells (Alamar blue, 72 h); format: cell-based; details: Homo sapiens, 72 h incubation
Protocol: (§1) Studies were carried out to test the effect of compounds on the inhibition of cell growth in MOLM-13 and MV4-11 cells.
(§2) The following protocol was used:
(§3) (a) Cells were seeded in 96-well plates at cell densities of 2500/well (MOLM-13) and 10,000/well (MV4-11). Cells were then incubated overnight prior to addition of compound or vehicle control.
(§4) (b) Test compounds were prepared from 10 mM DMSO stocks to give a final concentration range of 10 μM, 3 μM, 1 μM, 0.3 μM, […], 0.03 μM, 0.01 μM, […] vehicle control. The DMSO content was constant at 0.1%.
(§5) (c) Test compounds were incubated with the cells for 72 h at 37° C. 5% CO2 in a humidified atmosphere.
(§6) (d) Alamar blue 10% (v/v) was then added and incubated for a further 4 h, and fluorescent product detected using the BMG FLUOstar plate reader.
(§7) (e) Media only background values were subtracted and the data analysed using a 4-parameter logistic equation in GraphPad Prism.

MOLM-13 cells = experiment: Inhibition of cell growth in MOLM-13 cells (Alamar blue, 72 h); format: cell-based; details: Homo sapiens, 72 h incubation
Protocol: as §1, §2, §3, §4, §5, §6, §7

pIC50 (Chk-1 kinase)	pIC50 (MV4-11 cells)	pIC50 (MOLM-13 cells)	SMILES
9.68	6.87	–	CC(C)Oc1cc(CCNCC(=O)N2CCOCC2)c(Cl)cc1NC(=O)Nc1cnc(C#N)cn1 [Example 27, 1-{5-Chloro-2-isopropoxy-4-[2-(2-morpholin-4-yl-2-oxo-ethylamino)-ethyl]-phenyl}-3-(5-cyano-pyrazin-2-yl)-urea hydrochloride]
9.16	7.25	7.54	COc1cc(CCNCCN2CCN(C)CC2)c(Cl)cc1NC(=O)Nc1cnc(C#N)cn1 [Example 9, 1-(5-Chloro-2-methoxy-4-{2-[2-(4-methyl-piperazin-1-yl)-ethylamino]-ethyl}-phenyl)-3-(5-cyano-pyrazin-2-yl)-urea hydrochloride]
7.12	–	–	COc1cc(CCNC(=O)CN2CCOCC2)c(Cl)cc1NC(=O)Nc1cnc(C#N)cn1 [Example 16, N-(2-{2-Chloro-4-[3-(5-cyano-pyrazin-2-yl)-ureido]-5-methoxy-phenyl}-ethyl)-2-morpholin-4-yl-acetamide hydrochloride]
9.19	7.10	7.46	COc1cc(CCN[C@@H](C)C2CCN(C(=O)C3CC3)CC2)c(Cl)cc1NC(=O)Nc1cnc(C#N)cn1 [Example 10, 1-(5-Chloro-4-{2-[(S)-1-(1-cyclopropane-carbonyl-piperidin-4-yl)-ethylamino]-ethyl}-2-methoxy-phenyl)-3-(5-cyano-pyrazin-2-yl)-urea hydrochloride]
10.00	6.41	6.62	COc1cc(CCNCC2CCNCC2)c(Cl)cc1NC(=O)Nc1cnc(C#N)cn1 [Example 1, 1-(5-Chloro-2-methoxy-4-{2-[(piperidin-4-ylmethyl)-amino]-ethyl}-phenyl)-3-(5-cyano-pyrazin-2-yl)-urea hydrochloride]
9.21	–	–	COc1cc(OCCNCCN2CCOCC2)c(Cl)cc1NC(=O)Nc1cnc(C#N)cn1 [Example 25, 1-{5-Chloro-2-methoxy-4-[2-(2-morpholin-4-yl-ethylamino)-ethoxy]-phenyl}-3-(5-cyano-pyrazin-2-yl)-urea hydrochloride]
9.55	6.64	7.23	COc1cc(CCN[C@@H](C)C2CCN(S(C)(=O)=O)CC2)c(Cl)cc1NC(=O)Nc1cnc(C#N)cn1 [Example 11, 1-(5-Chloro-4-{2-[(S)-1-(1-methanesulfonyl-piperidin-4-yl)-ethylamino]-ethyl}-2-methoxy-phenyl)-3-(5-cyano-pyrazin-2-yl)-urea hydrochloride]
9.40	6.69	–	COc1cc(CCNC[C@H]2CN(C(=O)C3CC3)CCO2)c(Cl)cc1NC(=O)Nc1cnc(C#N)cn1 [Example 14, 1-(5-Chloro-4-{2-[((S)-4-cyclopropanecarbonyl-morpholin-2-ylmethyl)-amino]-ethyl}-2-methoxy-phenyl)-3-(5-cyano-pyrazin-2-yl)-urea hydrochloride]
8.72	6.32	–	COc1cc(CCNCC(=O)N2CCOCC2)c(Cl)cc1NC(=O)Nc1cnc(C#N)cn1 [Example 19, 1-{5-Chloro-2-methoxy-4-[2-(2-morpholin-4-yl-2-oxo-ethylamino)-ethyl]-phenyl}-3-(5-cyano-pyrazin-2-yl)-urea hydrochloride]
9.24	6.10	–	COc1cc(CCNCC(=O)N2CCN(C)CC2)c(Cl)cc1NC(=O)Nc1cnc(C#N)cn1 [Example 26, 1-(5-Chloro-2-methoxy-4-{2-[2-(4-methyl-piperazin-1-yl)-2-oxo-ethylamino]-ethyl}-phenyl)-3-(5-cyano-pyrazin-2-yl)-urea hydrochloride]
8.15	–	–	CC(C)Oc1cc(CCNC(=O)[C@H]2CNCCO2)c(Cl)cc1NC(=O)Nc1cnc(C#N)cn1 [Example 20, (R)-Morpholine-2-carboxylic acid (2-{2-chloro-4-[3-(5-cyano-pyrazin-2-yl)-ureido]-5-isopropoxy-phenyl}-ethyl)-amide hydrochloride]
8.96	–	–	COc1cc(CCN[C@H](C)CN2CCOCC2)c(Cl)cc1NC(=O)Nc1cnc(C#N)cn1 [Example 24, 1-{5-Chloro-2-methoxy-4-[2-((R)-1-methyl-2-morpholin-4-yl-ethylamino)-ethyl]-phenyl}-3-(5-cyano-pyrazin-2-yl)-urea hydrochloride]
9.28	6.76	–	COc1cc(CCN[C@@H](C)CN2CCOCC2)c(Cl)cc1NC(=O)Nc1cnc(C#N)cn1 [Example 18, 1-{5-Chloro-2-methoxy-4-[2-((S)-1-methyl-2-morpholin-4-yl-ethylamino)-ethyl]-phenyl}-3-(5-cyano-pyrazin-2-yl)-urea hydrochloride]
8.00	5.42	–	COc1cc(CCNC[C@H]2CN(C(=O)C3CC3)CCO2)ccc1NC(=O)Nc1cnc(C#N)cn1 [Example 21, 1-(5-Cyano-pyrazin-2-yl)-3-(4-{2-[((S)-4-cyclopropanecarbonyl-morpholin-2-ylmethyl)-amino]-ethyl}-2-methoxy-phenyl)-urea hydrochloride]
7.72	5.32	–	COc1cc(CCN[C@@H](C)CN2CCOCC2)ccc1NC(=O)Nc1cnc(C#N)cn1 [Example 23, 1-(5-Cyano-pyrazin-2-yl)-3-{2-methoxy-4-[2-((S)-1-methyl-2-morpholin-4-yl-ethylamino)-ethyl]-phenyl}-urea hydrochloride]
9.57	–	–	COc1cc(CCN[C@H](C)C2CCN(S(C)(=O)=O)CC2)c(Cl)cc1NC(=O)Nc1cnc(C#N)cn1 [Example 13, 1-(5-Chloro-4-{2-[(R)-1-(1-methanesulfonyl-piperidin-4-yl)-ethylamino]-ethyl}-2-methoxy-phenyl)-3-(5-cyano-pyrazin-2-yl)-urea hydrochloride]
9.32	6.41	–	COc1cc(CCN[C@@H](C)C(=O)N2CCOCC2)c(Cl)cc1NC(=O)Nc1cnc(C#N)cn1 [Example 28, 1-{5-Chloro-2-methoxy-4-[2-((S)-1-methyl-2-morpholin-4-yl-2-oxo-ethylamino)-ethyl]-phenyl}-3-(5-cyano-pyrazin-2-yl)-urea hydrochloride]
8.54	–	–	CC(C)Oc1cc(CCN[C@@H](C)C(=O)N2CCOCC2)ccc1NC(=O)Nc1cnc(C#N)cn1 [Example 30, 1-(5-Cyano-pyrazin-2-yl)-3-{2-isopropoxy-4-[2-((S)-1-methyl-2-morpholin-4-yl-2-oxo-ethylamino)-ethyl]-phenyl}-urea hydrochloride]

SMILES	pIC50 (Chk-1 kinase)	pIC50 (MV4-11 cells)	pIC50 (MOLM-13 cells)
COc1cc(CCNC(=O)CN2CCN(C)CC2)c(Cl)cc1NC(=O)Nc1cnc(C#N)cn1 [Example 17, N-(2-{2-Chloro-4-[3-(5-cyano-pyrazin-2-yl)-ureido]-5-methoxy-phenyl}-ethyl)-2-(4-methyl-piperazin-1-yl)-acetamide hydrochloride]	7.89	–	–
CC(C)Oc1cc(CCNC(=O)CN2CCN(C)CC2)c(Cl)cc1NC(=O)Nc1cnc(C#N)cn1 [Example 22, N-(2-{2-Chloro-4-[3-(5-cyano-pyrazin-2-yl)-ureido]-5-isopropoxy-phenyl}-ethyl)-2-(4-methyl-piperazin-1-yl)-acetamide hydrochloride]	8.09	6.28	–
COc1cc(CCNC(=O)[C@H]2CNCCO2)c(Cl)cc1NC(=O)Nc1cnc(C#N)cn1 [Example 15, (R)-Morpholine-2-carboxylic acid (2-{2-chloro-4-[3-(5-cyano-pyrazin-2-yl)-ureido]-5-methoxy-phenyl}-ethyl)-amide hydrochloride]	7.70	–	–
